Results: ChEMBL document CHEMBL2429852, “Synthesis and evaluation of new chalcones, derived pyrazoline and cyclohexenone derivatives as potent antimicrobial, antitubercular and antileishmanial agents” (Med Chem Res, 2013)
Converted amounts (≈) assume the structure as drawn.

Key:
Escherichia coli = experiment: Antibacterial activity against Escherichia coli MTCC 442 assessed as growth inhibition by broth microdilution method; format: functional
Staphylococcus aureus = experiment: Antibacterial activity against Staphylococcus aureus MTCC 96 assessed as growth inhibition by broth microdilution method; format: functional
Streptococcus pyogenes = experiment: Antibacterial activity against Streptococcus pyogenes MTCC 443 assessed as growth inhibition by broth microdilution method; format: functional
Leishmania braziliensis = experiment: Antileishmanial activity against promastigote stage of Leishmania braziliensis H3 assessed as parasite growth inhibition after 72 hrs by Neubauer chamber counting method; format: functional, organism-based
Candida albicans [1] = experiment: Antifungal activity against Candida albicans MTCC 227 assessed as growth inhibition by broth microdilution method; format: functional
Aspergillus niger = experiment: Antifungal activity against Aspergillus niger MTCC 282 assessed as growth inhibition by broth microdilution method; format: functional
Pseudomonas aeruginosa = experiment: Antibacterial activity against Pseudomonas aeruginosa MTCC 2488 assessed as growth inhibition by broth microdilution method; format: functional
[2] = test system: Mycobacterium tuberculosis; experiment: Antitubercular activity against Mycobacterium tuberculosis H37Rv assessed as growth inhibition after 12 to 28 days by Lowenstein-Jensen agar method; format: functional; conditions: for MIC: Mycobacterium tuberculosis, H37Rv
Aspergillus clavatus = experiment: Antifungal activity against Aspergillus clavatus MTCC 1323 assessed as growth inhibition by broth microdilution method; format: functional
Candida albicans [3] = experiment: Potency index, ratio of griseofulvin MIC to compound MIC for Candida albicans MTCC 227; format: functional
[4] = Leishmania braziliensis, H3, 72 h, read-out: IC50

SMILES | MIC99 (Escherichia coli) | MIC99 (Staphylococcus aureus) | MIC99 (Streptococcus pyogenes) | IC50 (Leishmania braziliensis) | MIC99 (Candida albicans [1]) | MIC99 (Aspergillus niger) | MIC99 (Pseudomonas aeruginosa) | growth inhibition (GI) [2] | MIC [2] | MIC99 (Aspergillus clavatus) | Ratio (Candida albicans [3]) | IC50 (Leishmania braziliensis; [4])
COc1ccc(C2CC(c3cccc([N+](=O)[O-])c3)=NN2C(C)=O)cc1 (stereo unspecified) | 250 µg/mL | 250 µg/mL | 250 µg/mL | Not Active | 1000 µg/mL | 1000 µg/mL | 250 µg/mL | 99% | 250 µg/mL (≈ 737 µM) | 1000 µg/mL | – | –
COc1ccc(C2CC(c3cccc([N+](=O)[O-])c3)=NN2C(C)=O)cc1OC (stereo unspecified) | 500 µg/mL | 125 µg/mL | 125 µg/mL | Not Active | 200 µg/mL | 500 µg/mL | 250 µg/mL | 99% | 500 µg/mL (≈ 1350 µM) | 500 µg/mL | 2 | –
CC(=O)N1N=C(c2cccc([N+](=O)[O-])c2)CC1c1ccc2c(c1)OCO2 (stereo unspecified) | 250 µg/mL | 250 µg/mL | 250 µg/mL | Not Active | 500 µg/mL | 500 µg/mL | 200 µg/mL | 99% | 250 µg/mL (≈ 708 µM) | 500 µg/mL | – | –
COc1cc(OC)c(OC)cc1/C=C/C(=O)c1cccc([N+](=O)[O-])c1 | 125 µg/mL | 500 µg/mL | 500 µg/mL | Not Active | 1000 µg/mL | 1000 µg/mL | 125 µg/mL | 99% | 250 µg/mL (≈ 728 µM) | 1000 µg/mL | – | –
O=[N+]([O-])c1cccc(C2=NNC(c3ccc4c(c3)OCO4)C2)c1 (stereo unspecified) | 100 µg/mL | 100 µg/mL | 125 µg/mL | Not Active | 250 µg/mL | 1000 µg/mL | 200 µg/mL | 98% | 500 µg/mL (≈ 1610 µM) | 1000 µg/mL | 2 | –
CCOC(=O)C1C(=O)C=C(c2cccc([N+](=O)[O-])c2)CC1c1ccc(OC)cc1 (stereo unspecified) | 100 µg/mL | 250 µg/mL | 500 µg/mL | Not Active | 500 µg/mL | > 1000 µg/mL | 200 µg/mL | 98% | 500 µg/mL (≈ 1260 µM) | > 1000 µg/mL | – | –
CCOC(=O)C1C(=O)C=C(c2cccc([N+](=O)[O-])c2)CC1c1ccc2c(c1)OCO2 (stereo unspecified) | 125 µg/mL | 250 µg/mL | 200 µg/mL | Not Active | 500 µg/mL | 1000 µg/mL | 200 µg/mL | 99% | 250 µg/mL (≈ 611 µM) | 1000 µg/mL | – | –
CCOC(=O)C1C(=O)C=C(c2cccc([N+](=O)[O-])c2)CC1c1cc(OC)c(OC)c(OC)c1 (stereo unspecified) | 200 µg/mL | 200 µg/mL | 200 µg/mL | Not Active | 100 µg/mL | > 1000 µg/mL | 200 µg/mL | 99% | 250 µg/mL (≈ 549 µM) | > 1000 µg/mL | – | –
COc1ccc(/C=C/C(=O)c2cccc([N+](=O)[O-])c2)cc1 | 200 µg/mL | 500 µg/mL | 500 µg/mL | Not Active | 1000 µg/mL | 200 µg/mL | 200 µg/mL | 98% | 1000 µg/mL (≈ 3530 µM) | 200 µg/mL | – | –
O=C(/C=C/C=C/c1ccccc1)c1cccc([N+](=O)[O-])c1 | 200 µg/mL | 125 µg/mL | 125 µg/mL | Not Active | 250 µg/mL | 1000 µg/mL | 100 µg/mL | 97% | 1000 µg/mL (≈ 3580 µM) | 1000 µg/mL | 2 | –
COc1cc(C2CC(c3cccc([N+](=O)[O-])c3)=NN2C(C)=O)cc(OC)c1OC (stereo unspecified) | 250 µg/mL | 250 µg/mL | 250 µg/mL | Not Active | 250 µg/mL | 500 µg/mL | 200 µg/mL | 99% | 12.5 µg/mL (≈ 31.3 µM) | 500 µg/mL | 2 | –
COc1ccc(C2CC(c3cccc([N+](=O)[O-])c3)=NN2C(C)=O)c(OC)c1OC (stereo unspecified) | 100 µg/mL | 250 µg/mL | 250 µg/mL | Not Active | 1000 µg/mL | 250 µg/mL | 100 µg/mL | 99% | 250 µg/mL (≈ 626 µM) | 250 µg/mL | – | –
COc1cc(OC)c(C2CC(c3cccc([N+](=O)[O-])c3)=NN2C(C)=O)cc1OC (stereo unspecified) | 125 µg/mL | 100 µg/mL | 125 µg/mL | Not Active | 1000 µg/mL | 250 µg/mL | 125 µg/mL | 98% | 500 µg/mL (≈ 1250 µM) | 250 µg/mL | – | –
CC(=O)N1N=C(c2cccc([N+](=O)[O-])c2)CC1c1ccc2ccccc2c1 (stereo unspecified) | 250 µg/mL | 100 µg/mL | 100 µg/mL | Not Active | 250 µg/mL | > 1000 µg/mL | 250 µg/mL | 98% | 1000 µg/mL (≈ 2780 µM) | > 1000 µg/mL | 2 | –
COc1ccc(C2CC(c3cccc([N+](=O)[O-])c3)=NN2)cc1 (stereo unspecified) | 62.5 µg/mL | 500 µg/mL | 500 µg/mL | – | 250 µg/mL | 1000 µg/mL | 100 µg/mL | 99% | 250 µg/mL (≈ 841 µM) | 1000 µg/mL | 2 | > 100 µM
COc1ccc(/C=C/C(=O)c2cccc([N+](=O)[O-])c2)cc1OC | 100 µg/mL | 200 µg/mL | 200 µg/mL | – | 500 µg/mL | > 1000 µg/mL | 200 µg/mL | 98% | 500 µg/mL (≈ 1600 µM) | > 1000 µg/mL | – | > 100 µM
O=C(/C=C/c1ccc2c(c1)OCO2)c1cccc([N+](=O)[O-])c1 | 250 µg/mL | 250 µg/mL | 250 µg/mL | Not Active | 250 µg/mL | 1000 µg/mL | 250 µg/mL | 99% | 250 µg/mL (≈ 841 µM) | 1000 µg/mL | 2 | –
CC1(C)S[C@@H]2[C@H](NC(=O)[C@H](N)c3ccccc3)C(=O)N2[C@H]1C(=O)O [AMPICILLIN] | 100 µg/mL | 250 µg/mL | 100 µg/mL | – | – | – | 100 µg/mL | – | – | – | – | –
COC1=CC(=O)C[C@@H](C)[C@]12Oc1c(Cl)c(OC)cc(OC)c1C2=O [GRISEOFULVIN] | – | – | – | – | 500 µg/mL | 100 µg/mL | – | – | – | 100 µg/mL | – | –
CO[C@H]1/C=C/O[C@@]2(C)Oc3c(C)c(O)c4c(O)c(c(/C=N/N5CCN(C)CC5)c(O)c4c3C2=O)NC(=O)/C(C)=C\C=C\[C@H](C)[C@H](O)[C@@H](C)[C@@H](O)[C@@H](C)[C@H](OC(C)=O)[C@@H]1C [RIFAMPIN] | – | – | – | – | – | – | – | 98% | 40 µg/mL (≈ 48.6 µM) | – | – | –
